Patent US10239887B2, “Positive allosteric modulators of the muscarinic acetylcholine receptor M4” (Vanderbilt University, priority 2016, dated 2019)

Tests used:
human mAChR M4 = target: T1, human mAChR M4 (Homo sapiens, UniProt P08173); experiment: mAChR M4 cell-based functional assay (calcium flux), human M4; settings: for Emax: Human M4, % ACh maximum at 30 μM; for EC50: Human M4 EC50, CHO-K1 hM4-Gqi5 cells, calcium flux, increase in EC20 acetylcholine response
T1 sequence (P08173 1-479): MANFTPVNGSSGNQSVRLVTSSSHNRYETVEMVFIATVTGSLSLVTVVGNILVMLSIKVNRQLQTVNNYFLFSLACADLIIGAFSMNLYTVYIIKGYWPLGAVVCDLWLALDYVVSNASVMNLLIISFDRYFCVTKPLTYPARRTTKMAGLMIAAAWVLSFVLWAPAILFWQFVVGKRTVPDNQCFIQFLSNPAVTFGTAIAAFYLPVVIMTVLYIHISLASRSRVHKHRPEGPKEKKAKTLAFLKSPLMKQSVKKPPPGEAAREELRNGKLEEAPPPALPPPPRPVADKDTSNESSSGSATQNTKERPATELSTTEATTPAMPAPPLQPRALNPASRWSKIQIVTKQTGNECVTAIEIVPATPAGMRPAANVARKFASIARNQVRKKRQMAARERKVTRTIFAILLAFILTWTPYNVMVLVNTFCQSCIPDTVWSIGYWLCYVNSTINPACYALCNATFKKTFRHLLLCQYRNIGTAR

rat mAChR M4 = target: T2, rat mAChR M4 (Rattus norvegicus, UniProt P08485); experiment: mAChR M4 cell-based functional assay (calcium flux), rat M4; parameters: Emax: dose or concentration left out as unconfirmed; settings: for EC50: read-out: Rat M4 EC50, CHO-K1 rM4-Gqi5 cells, calcium flux, increase in EC20 acetylcholine response
T2 sequence (P08485 1-478): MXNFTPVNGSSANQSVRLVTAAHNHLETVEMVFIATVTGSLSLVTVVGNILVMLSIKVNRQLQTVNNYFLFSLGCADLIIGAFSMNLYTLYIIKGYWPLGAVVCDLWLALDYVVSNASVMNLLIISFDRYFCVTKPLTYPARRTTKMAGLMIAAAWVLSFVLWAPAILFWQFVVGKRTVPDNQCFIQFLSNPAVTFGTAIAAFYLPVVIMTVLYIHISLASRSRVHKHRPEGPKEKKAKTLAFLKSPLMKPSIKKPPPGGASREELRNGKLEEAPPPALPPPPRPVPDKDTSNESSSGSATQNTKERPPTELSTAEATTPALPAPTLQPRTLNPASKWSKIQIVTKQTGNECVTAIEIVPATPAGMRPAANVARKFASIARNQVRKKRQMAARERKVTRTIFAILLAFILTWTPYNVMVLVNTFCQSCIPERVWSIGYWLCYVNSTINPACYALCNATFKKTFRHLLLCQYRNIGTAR

[1] = test system: amphetamine-induced hyperlocomotion; experiment: amphetamine-induced hyperlocomotion in rats; type: in vivo, male Sprague-Dawley rats; settings: 10 mg/kg p.o.; rat; 1 mg/kg amphetamine s.c.
Protocol: d-Amphetamine hemisulfate was obtained from Sigma (St. Louis, Mo.). Salt-correction was used to determine the correct amount of the d-amphetamine hemisulfate form in milligrams to add to sterile water in order to yield a […] solution, which would be dosed at 1 mL/kg body weight of each animal. […] The solutions were formulated so that animals were injected with a volume equal to 10 mL/kg body weight for all compounds. The appropriate amount according to the dosage was mixed in 10% Tween 80 (Sigma) in sterile water. The mixtures were then vortexed and stored in a 39° C. sonication bath for 1 hour, until in a microsuspension (except for the highest dose, which was a suspension).
Male Sprague-Dawley rats weighing 239-300 grams and averaging 265 g (Harlan, Inc., Indianapolis, Ind.) were used. They were housed in the animal care facility certified by the American Association for the Accreditation of Laboratory Animal Care (AALAC) under a 12-hour light/dark cycle (lights on: 6 a.m.; lights off: 6 p.m.) and had free access to food and water. The animals used in this experiment were food-deprived the evening before experimentation for oral dosing of compound/vehicle. The experimental protocols performed during the light cycle were approved by the Institutional Animals Care and Use Committee of Vanderbilt University and conformed to the guidelines established by the National Research Council Guide for the Care and Use of Laboratory Animals.
Male Harlan Sprague Dawley rats were habituated in Smart Open Field locomotor activity test chambers (Hamilton-Kinder, San Diego, Calif.) with 16×16 photo beams to automatically record locomotor activity. […] They were monitored for an additional 30 minutes and then injected subcutaneously with vehicle or 1 mg/kg amphetamine. Animals were then monitored for an additional 60 minutes, for a total of 120 minutes. Data were expressed as changes in ambulation defined as total number of beam breaks per 5 minute interval. Terminal brain and plasma samples were collected at the end of the study for pharmacokinetic analysis.
Behavioral data were analyzed using a two-way ANOVA with main effects of treatment and time. Post hoc analysis was performed using a Dunnett's t-test with all treatment groups compared to the VAMP group using GraphPad Prism V.5.04 (GraphPad Software, San Diego, Calif.). Data were graphed using GraphPad Prism V.5.04 (GraphPad Software, San Diego, Calif.). A probability of p<0.05 was taken as the level of statistical significance. In addition, the total number of beam breaks from the amphetamine administration (65 min) to the end of the study (120 min) was calculated and graphed. Percent Reversal was calculated as follows using Microsoft Excel: In each animal, total ambulation from t=65 to t=120 was summed. The mean of each sum was calculated in the VAMP group. Then, for each animal, Percent Reversal was calculated with the following formula: Percent Reversal=100−{[(total ambulation in each animal from t=65 to t=120)/(mean of each sum from t=65 to t=120 in VAMP group)]*100}. The mean Percent Reversal, as well as the standard error, was calculated for each dose group using GraphPad Prism V5.04.

Row | SMILES | Emax (human mAChR M4) [%] | EC50 (human mAChR M4) [nM] | Emax (rat mAChR M4) [%] | EC50 (rat mAChR M4) [nM] | percent reversal of amphetamine-induced hyperlocomotion [1] [%]
1 | Cc1nnc2sc3c(N4CCC(N(C)C)C4)ncnc3c2c1C (stereo not shown) [Compound 11, 1-(3,4-dimethylpyrimido [4′,5′:4,5]thieno[2,3-c]pyridazin-8-yl)-N,N-dimethylpyrrolidin-3-amine] | 40 | 257 | 55 | 326 | 
2 | COCCN(C)c1ncnc2c1sc1nnc(C)c(C)c12 [Compound 12, N-(2-methoxyethyl)-N,3,4-trimethylpyrimido [4′,5′:4,5]thieno[2,3-c] pyridazin-8-amine] | 40 | 846 | 57 | 927 | 
3 | Cc1nnc2sc3c(N4CC5(COC5)C4)ncnc3c2c1C [Compound 13, 6-(3,4-dimethylpyrimido [4′,5′:4,5]thieno[2,3-c]pyridazin-8-yl)-2-oxa-6-azaspiro[3.3]heptane] | 73 | 123 | 86 | 231 | 
4 | COCC1CN(c2ncnc3c2sc2nnc(C)c(C)c23)C1 [Compound 14, 8-(3-(methoxymethyl)azetidin-1-yl)-3,4-dimethylpyrimido [4′,5′:4,5]thieno[2,3-c] pyridazine] | 62 |  | 75 |  | 
5 | Cc1cnc2sc3c(NC4CN(c5ncc(C(F)(F)F)cn5)C4)ncnc3c2c1 [Compound 17, 8-methyl-N-(1-(5-(trifluoromethyl)pyrimidin-2-yl)azetidin-3-yl)pyrido[3′,2′:4,5] thieno[3,2-d]pyrimidin-4-amine] | 32 |  | 76 | 424 | 
6 | Cc1cnc2sc3c(N4CCC4)ncnc3c2c1 [Compound 18, 4-(azetidin-1-yl)-8-methylpyrido[3′,2′:4,5] thieno[3,2-d]pyrimidine] | 58 |  | 51 | 2500 | 
7 | Cc1cnc2sc3c(N4CC5(COC5)C4)ncnc3c2c1 [Compound 19, 6-(8-methylpyrido [3′,2′:4,5]thieno[3,2-d]pyrimidin-4-yl)-2-oxa-6-azaspiro[3.3]heptane] | 36 | 456 | 54 | 1150 | 
8 | FC(F)(F)c1cnc(N2CC(Nc3ncnc4c3sc3nccnc34)C2)nc1 [Compound 20, N-(1-(5-(trifluoromethyl)pyrimidin-2-yl)azetidin-3-yl)pyrazino[2′,3′:4,5] thieno[3,2-d]pyrimidin-4-amine] |  | > 10000 | 46 | 2800 | 
9 | Cc1nnc2sc3c(N4CC(c5ccncc5)C4)ncnc3c2c1C [Compound 24, 3,4-dimethyl-8-(3-(pyridin-4-yl)azetidin-1-yl)pyrimido[4′,5′:4,5] thieno[2,3-c]pyridazine] | 62 |  | 40 | 185 | 
10 | Cc1nnc2sc(C(=O)NCc3ccc(S(=O)(=O)C(F)(F)F)cc3)c(N)c2c1C [VU0467154, reference compound] |  |  |  |  | 58.9
